ChEMBL document CHEMBL1137334 (J Med Chem, 2006)
Converted amounts (≈) assume the structure as drawn.

Key:
[1] = target: Proto-oncogene tyrosine-protein kinase Src (Homo sapiens, UniProt P12931)
Description: Inhibition of human c-Src in NIH3T3 cells

A549 = assay: Inhibition of A549 cell migration by microdroplet migration assay; assay type: functional, cell-based; details: Homo sapiens
[2] = target: Vascular endothelial growth factor receptor 2 (Homo sapiens, UniProt P35968); assay: Inhibition of KDR
[3] = AUC (0-24h) in mouse at 20 mg/kg, po; assay type: ADME, organism-based; parameters: time < 24 hr, dose 20 mg/kg, route oral; details: plasma
[4] = Percent of unbound ligand in rat plasma; assay type: ADME, organism-based
[5] = Aqueous solubility at pH 7.4; assay type: physicochemical
[6] = Lipophilicity, log D at pH 7.4; assay type: physicochemical; details: buffer
[7] = Dissociation constant, pKa of the basic side chain of compound; assay type: physicochemical
Canis familiaris [8] = species: Canis familiaris; assay: Half life in male dog; assay type: ADME, organism-based, Canis lupus familiaris; details: in vivo
[9] = Clearance in female rat at 20 mg/kg, po and 2 mg/kg, iv; assay type: ADME, organism-based; details: in vivo
[10] = Volume of distribution in female rat at 20 mg/kg, po and 2 mg/kg, iv; assay type: ADME, organism-based; details: in vivo, read-out: Vdss
[11] = Bioavailability in male dog; assay type: ADME, organism-based, Canis lupus familiaris; details: in vivo
[12] = Bioavailability in female rat at 20 mg/kg, po and 2 mg/kg, iv; assay type: ADME, organism-based; details: in vivo
Canis familiaris [13] = species: Canis familiaris; assay: Volume of distribution in male dog; assay type: ADME, organism-based, Canis lupus familiaris; details: in vivo

Vascular endothelial growth factor receptor 2, sequence (P35968 whole entry): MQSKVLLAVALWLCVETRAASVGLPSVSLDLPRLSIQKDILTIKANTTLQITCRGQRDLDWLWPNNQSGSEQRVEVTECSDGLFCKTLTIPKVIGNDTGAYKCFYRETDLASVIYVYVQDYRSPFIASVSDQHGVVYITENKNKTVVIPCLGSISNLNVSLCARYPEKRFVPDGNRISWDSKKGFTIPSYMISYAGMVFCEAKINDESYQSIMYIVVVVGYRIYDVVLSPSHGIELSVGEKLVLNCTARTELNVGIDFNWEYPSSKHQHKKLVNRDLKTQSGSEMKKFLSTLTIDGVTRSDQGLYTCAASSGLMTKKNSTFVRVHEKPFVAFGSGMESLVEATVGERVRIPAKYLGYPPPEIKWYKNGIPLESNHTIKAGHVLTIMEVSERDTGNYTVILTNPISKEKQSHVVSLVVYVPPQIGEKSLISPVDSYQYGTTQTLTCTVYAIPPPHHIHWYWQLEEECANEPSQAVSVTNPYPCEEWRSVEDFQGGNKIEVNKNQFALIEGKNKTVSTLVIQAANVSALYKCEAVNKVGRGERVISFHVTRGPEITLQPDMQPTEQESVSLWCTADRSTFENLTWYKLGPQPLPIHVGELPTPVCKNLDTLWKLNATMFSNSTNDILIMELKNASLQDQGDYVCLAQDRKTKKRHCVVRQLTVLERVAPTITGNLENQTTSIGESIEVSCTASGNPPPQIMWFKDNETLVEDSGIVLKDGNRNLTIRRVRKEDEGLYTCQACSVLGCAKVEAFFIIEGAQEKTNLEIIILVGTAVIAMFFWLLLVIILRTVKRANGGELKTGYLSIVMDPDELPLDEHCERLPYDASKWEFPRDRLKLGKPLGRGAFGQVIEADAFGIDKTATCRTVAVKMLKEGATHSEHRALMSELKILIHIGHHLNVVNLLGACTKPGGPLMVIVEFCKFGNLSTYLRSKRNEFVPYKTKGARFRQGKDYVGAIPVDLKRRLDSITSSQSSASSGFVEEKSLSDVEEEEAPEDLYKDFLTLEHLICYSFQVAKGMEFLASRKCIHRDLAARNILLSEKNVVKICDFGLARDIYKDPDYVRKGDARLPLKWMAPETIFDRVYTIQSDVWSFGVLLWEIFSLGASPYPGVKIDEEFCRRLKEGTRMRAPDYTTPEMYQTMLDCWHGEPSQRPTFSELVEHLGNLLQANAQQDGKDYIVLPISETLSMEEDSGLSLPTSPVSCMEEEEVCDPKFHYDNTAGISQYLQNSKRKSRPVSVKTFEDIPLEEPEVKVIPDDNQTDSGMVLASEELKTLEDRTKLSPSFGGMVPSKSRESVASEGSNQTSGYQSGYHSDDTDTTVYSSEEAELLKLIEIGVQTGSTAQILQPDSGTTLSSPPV
Proto-oncogene tyrosine-protein kinase Src, sequence (P12931 2-536 limits assumed): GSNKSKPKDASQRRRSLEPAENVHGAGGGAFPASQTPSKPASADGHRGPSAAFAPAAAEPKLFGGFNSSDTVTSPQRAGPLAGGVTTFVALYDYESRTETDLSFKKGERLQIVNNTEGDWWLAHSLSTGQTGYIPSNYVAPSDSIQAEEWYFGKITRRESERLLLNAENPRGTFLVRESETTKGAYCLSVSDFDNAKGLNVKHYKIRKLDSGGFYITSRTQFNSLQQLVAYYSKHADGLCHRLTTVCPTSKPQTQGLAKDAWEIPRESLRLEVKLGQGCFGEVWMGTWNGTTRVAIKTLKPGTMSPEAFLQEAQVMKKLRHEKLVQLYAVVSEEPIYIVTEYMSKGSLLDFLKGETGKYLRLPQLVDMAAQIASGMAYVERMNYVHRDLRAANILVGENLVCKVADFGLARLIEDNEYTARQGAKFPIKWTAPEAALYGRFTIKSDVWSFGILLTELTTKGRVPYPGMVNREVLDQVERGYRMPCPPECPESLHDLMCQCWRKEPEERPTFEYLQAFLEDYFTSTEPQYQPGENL

SMILES | IC50 [1] | IC50 (A549) | IC50 [2] | also measured
CN1CCC(Oc2cccc3ncnc(Nc4c(Cl)ccc5c4OCO5)c23)CC1 | 100 nM | 700 nM | – | –
COc1ccc(Cl)c(Nc2ncnc3cccc(OC4CCOCC4)c23)c1 | 400 nM | – | – | –
COc1cc2c(Nc3c(Cl)ccc4c3OCO4)ncnc2cc1OCC1CCN(C)CC1 | – | – | – | AUC(0-t) at 24 h [3]: 38000 ng·h/mL
COc1ccc(Cl)c(Nc2ncnc3cc(OC)c(OC)cc23)c1 | 250 nM | – | – | –
COc1cc(OCCCN2CCCC2)cc2ncnc(Nc3c(Cl)ccc4c3OCO4)c12 | 15 nM | – | – | –
CN1CCN(CCCOc2cc(OC3CCOCC3)c3c(Nc4c(Cl)ccc5c4OCO5)ncnc3c2)CC1 | < 4 nM | 200 nM | 1000 nM | –
CN1CCC(Oc2cc(OCCF)cc3ncnc(Nc4c(Cl)ccc5c4OCO5)c23)CC1 | 4 nM | 90 nM | > 20000 nM | –
CC(C)Oc1cc(OCCCN2CCCC2)cc2ncnc(Nc3c(Cl)ccc4c3OCO4)c12 | < 4 nM | 150 nM | 1200 nM | –
c1cc(Nc2ncnc3cc(OCCN4CCCC4)cc(OC4CCOCC4)c23)c2c(c1)OCCO2 | 85 nM | – | 50 nM | –
CN1CCC(COc2cc(OC3CCOCC3)c3c(Nc4c(Cl)ccc5c4OCO5)ncnc3c2)CC1 | 6 nM | 300 nM | 2000 nM | T1/2 (Canis familiaris [8]): 22 h; clearance [9]: 132 mL/min/kg; Vd [10]: 23.4 L/kg; bioavailability [11]: 57%; bioavailability [12]: 93%; AUC(0-t) at 24 h [3]: 31000 ng·h/mL; Vdss (Canis familiaris [13]): 38 L/kg
Clc1ccc2c(c1Nc1ncnc3cc(OCCc4ccncc4)cc(OC4CCOCC4)c13)OCO2 | 3 nM | 70 nM | > 5000 nM | fraction unbound [4]: 0.017; solubility [5]: 1.5 µM (≈ 0.781 µg/mL); logD [6]: > 3.1; pKa [7]: 6.4; AUC(0-t) at 24 h [3]: 6000 ng·h/mL
COc1cc(Oc2ccncc2)c2c(Nc3c(Cl)ccc4c3OCO4)ncnc2c1 | 9.5 nM | 150 nM | 21500 nM | AUC(0-t) at 24 h [3]: 100 ng·h/mL
COc1ccc(Cl)c(Nc2ncnc3ccc(OCCCN4CCN(C)CC4)c(OC4CCOCC4)c23)c1 | 600 nM | – | – | –

Continued, in another order:

IC50 [1] | IC50 (A549) | IC50 [2] | SMILES | also measured
< 4 nM | – | 50 nM | COc1ccc(Cl)c(Nc2ncnc3cc(OCCCN4CCOCC4)cc(OC4CCOC4)c23)c1 (racemic) | –
30 nM | 300 nM | > 2000 nM | COc1ccc(Cl)c(Nc2ncnc3cc(OC)cc(OC4CCN(C)CC4)c23)c1 | –
7 nM | 200 nM | > 10000 nM | CC(C)COc1cc(OC2CCN(C)CC2)c2c(Nc3c(Cl)ccc4c3OCO4)ncnc2c1 | AUC(0-t) at 24 h [3]: 600 ng·h/mL
10 nM | 150 nM | 21500 nM | COc1cc(OC2CCN(C)CC2)c2c(Nc3c(Cl)ccc4c3OCO4)ncnc2c1 | fraction unbound [4]: 0.25; solubility [5]: > 1000 µM; logD [6]: 2.9; pKa [7]: 8.2; AUC(0-t) at 24 h [3]: 50 ng·h/mL
300 nM | – | > 5000 nM | COc1ccc(Cl)c(Nc2ncnc3cccc(OC4CCN(C)CC4)c23)c1 | –
< 4 nM | 300 nM | 40 nM | COc1ccc(Cl)c(Nc2ncnc3cc(OCCCN4CCN(C)CC4)cc(OC4CCOCC4)c23)c1 | –
540 nM | – | – | COc1ccc(Cl)c(Nc2ncnc3ccc(OC)c(OC4CCN(C)CC4)c23)c1 | –
570 nM | – | 500 nM | COc1cc(OC2CCN(C)CC2)c2c(Nc3cccc4c3OCCO4)ncnc2c1 | –
